Measurements taken from article PMC7463651, “Phase I/Ib Study of Tenalisib (RP6530), a Dual PI3K δ/γ Inhibitor in Patients with Relapsed/Refractory T-Cell Lymphoma” (Cancers, 2020).
“And” between values parts separate entries of the source, which are not always exact repeats. Equal entries are not always repeated.

Columns and labels:
[1] = system: T-cell leukemia xenograft; design: method as in ref 18 = [18]; 18. Mao G. Viswanadha S. Rhizen, Switzerland Unpublished work 2013; conditions: cited from earlier work
[2] = system: relapsed/refractory CTCL; assay: Efficacy assessment (ORR, DoR), CTCL patients; type: in vivo, human; conditions: for Median DoR (95% CI) / ORR (95% CI): CTCL
Protocol: Efficacy assessments included radiological, bone marrow biopsy/aspiration and skin assessments. In some cases, bone marrow disease alone was used for disease assessment. In these cases, response was reported as CR or non-CR.
In CTCL patients, assessment of skin lesions was performed at screening, Day 1 of Cycle 3 and 5, approximately 12 weeks thereafter and at the end of treatment (EOT). Skin photographs were obtained for half body global and up to 5 selected representative index lesions at baseline, at Day 1 of Cycle 3, EOT, at PR/CR/progressive disease (PD) and as required as per the discretion of the Investigator. In case of nodal involvement, radiological assessment was performed at screening, Day 1 of Cycle 3 and 5 and approximately 12 weeks thereafter. Skin biopsy was performed from the most indurated area at screening, on C3D1 and to confirm a CR.
The efficacy parameters included ORR and DoR. Revised Response Criteria for Malignant Lymphoma (Cheson 2007) was used for evaluation of PTCL [21]. International Society for Cutaneous Lymphomas Response Criteria for Mycosis Fungoides and Sezary Syndrome (SS) and Cutaneous Lymphoma Task Force of the European Organization for Research and Treatment of Cancer criteria were used for evaluation of CTCL patients. For skin scoring, the modified Severity Weighted Assessment Tool was used. For local index lesion skin scoring, the Composite Assessment of Index Lesion Severity was used.

[3] = system: malignant patient derived primary CTCL cells; design: method as in ref 18 = [18]; 18. Mao G. Viswanadha S. Rhizen, Switzerland Unpublished work 2013; conditions: cited from earlier work
[4] = Dose Escalation 800 mg Fasting, N = 2
[5] = Dose Escalation 800 mg Fed, N = 4
[6] = Dose Expansion 800 mg Fasting, N = 12

For `CC[C@H](Nc1ncnc2[nH]cnc12)c1oc2ccccc2c(=O)c1-c1cccc(F)c1` [Tenalisib], the “Efficacy in xenograft model” value [1] is given as “demonstrated efficacy”, the “Partial response (PR), number of patients” value ([2]; CTCL patients) is given as 9 patients and the “Median DoR (95% CI)” value ([2]; Cumulative Total, N = 20) is given as 3.8 months and 3.8 (2.3, 12.8) months. For the same compound, the “ORR (95% CI)” value ([2]; Cumulative Total, N = 20) was 45% and 45.0 (23.1, 68.5) %, the “ORR (95% CI)” value ([2]; Dose Escalation 200 mg, N = 1) was 0.0 (0.0, 97.5) % and the “Median DoR (95% CI)” value ([2]; Dose Escalation 400 mg, N = 1) was 3.8 (-,-) months. The “ORR (95% CI)” value ([2]; Dose Escalation 400 mg, N = 1) was 100.0 (2.5, 100.0) %, the “Median DoR (95% CI)” value [2, 4] was 2.3 (-,-) months and the “ORR (95% CI)” value [2, 4] was 50.0 (1.3, 98.7) %. The “Median DoR (95% CI)” value [2, 5] was 3.3 (1.7, 4.9) months, the “ORR (95% CI)” value [2, 5] was 50.0 (6.8, 93.2) % and the “Median DoR (95% CI)” value ([2]; Dose Escalation Total, N = 8) was 3.05 (1.7, 4.6) months. For the same compound, the “ORR (95% CI)” value ([2]; Dose Escalation Total, N = 8) was 50.0 (15.7, 84.3) %, the “Median DoR (95% CI)” value [2, 6] was 10.3 (2.6, 19.6) months and the “ORR (95% CI)” value [2, 6] was 41.7 (15.2, 72.3) %. The Ex-vivo activity [3] was “shown ex-vivo activity”.
